Experiments:
[1] = in vitro; settings: human, Caco-2
Description: Apparent permeability of the compound from basolateral to apical side in human Caco2 cells assessed as drug recovery after 120 mins by LC-MS/MS analysis

[2] = molecular target: T1, CYP3A4 (Homo sapiens, UniProt P08684); experiment: Inhibition of recombinant human CYP3A4 expressed in insect cell microsomes at 5 uM using Luciferin-IPA as substrate preincubated for 10 mins followed by NADPH addition measured after 10 mins by luminometric method; format: ADME; settings: probe Luciferin-IPA
[3] = AUClast in CD1 mouse at 200 mg/kg, po administered as single dose by HPLC-MS/MS analysis; format: ADME, organism-based; parameters: dose 200 mg/kg, time 0 - last, route oral; settings: in vivo
[4] = tested on: Mus musculus; experiment: Clast in CD1 mouse at 200 mg/kg, po administered as single dose by HPLC-MS/MS analysis; format: ADME, organism-based; settings: in vivo
[5] = molecular target: T2, CYP2C9 (Homo sapiens, UniProt P11712); experiment: Inhibition of recombinant human CYP2C9 expressed in insect cell microsomes at 10 uM using Luciferin-H as substrate preincubated for 30 mins followed by NADPH addition measured after 30 mins by luminometric method; format: ADME; settings: probe Luciferin-H
[6] = Drug recovery in mouse plasma at 37 degC after 120 mins by HPLC-MS/MS analysis; format: ADME, cell-free; settings: read-out: Drug recovery
[7] = tested on: Mus musculus; experiment: Tlast in CD1 mouse at 200 mg/kg, po administered as single dose by HPLC-MS/MS analysis; format: ADME, organism-based; settings: in vivo
[8] = molecular target: T1, CYP3A4; experiment: Inhibition of recombinant human CYP3A4 expressed in insect cell microsomes at 10 uM using Luciferin-IPA as substrate preincubated for 10 mins followed by NADPH addition measured after 10 mins by luminometric method; format: ADME; settings: probe Luciferin-IPA
[9] = Apparent clearance in CD1 mouse at 200 mg/kg, po administered as single dose by HPLC-MS/MS analysis; format: ADME, organism-based; settings: in vivo
[10] = molecular target: T3, CYP2C19 (Homo sapiens, UniProt P33261); experiment: Inhibition of recombinant human CYP2C19 expressed in insect cell microsomes at 10 uM using Luciferin-H EGE as substrate preincubated for 20 mins followed by NADPH addition measured after 30 mins by luminometric method; format: ADME; settings: probe Luciferin-H EGE
[11] = Apparent terminal volume of distribution in CD1 mouse at 200 mg/kg, po administered as single dose by HPLC-MS/MS analysis; format: ADME, organism-based; settings: in vivo, read-out: Vz/F
[12] = molecular target: T3, CYP2C19; experiment: Inhibition of recombinant human CYP2C19 expressed in insect cell microsomes at 1 uM using Luciferin-H EGE as substrate preincubated for 20 mins followed by NADPH addition measured after 30 mins by luminometric method; format: ADME; settings: probe Luciferin-H EGE
[13] = molecular target: T3, CYP2C19; experiment: Inhibition of recombinant human CYP2C19 expressed in insect cell microsomes at 5 uM using Luciferin-H EGE as substrate preincubated for 20 mins followed by NADPH addition measured after 30 mins by luminometric method; format: ADME; settings: probe Luciferin-H EGE
[14] = AUC (infinity) in CD1 mouse at 200 mg/kg, po administered as single dose by HPLC-MS/MS analysis; format: ADME, organism-based; parameters: dose 200 mg/kg, route oral, time infinity; settings: in vivo
[15] = molecular target: T4, CYP2D6 (Homo sapiens, UniProt P10635); experiment: Inhibition of recombinant human CYP2D6 expressed in insect cell microsomes at 10 uM using Luciferin-ME EGE as substrate preincubated for 30 mins followed by NADPH addition measured after 45 mins by luminometric method; format: ADME; settings: probe Luciferin-ME EGE
[16] = Tmax in CD1 mouse at 200 mg/kg, po administered as single dose by HPLC-MS/MS analysis; format: ADME, organism-based; settings: in vivo
[17] = in vitro; settings: human, Caco-2; remark: listed apart in the source
Description: Apparent permeability of the compound from apical to basolateral side in human Caco2 cells after 120 mins by LC-MS/MS analysis

[18] = molecular target: T5, Cytochrome P450 1A2 (Homo sapiens, UniProt P05177); experiment: Inhibition of recombinant human CYP1A2 expressed in insect cell microsomes using Luciferin-ME as substrate preincubated for 10 mins followed by NADPH addition measured after 30 mins by luminometric method; format: ADME; settings: recombinant enzyme, 0.5 h
T5 sequence (P05177 whole entry): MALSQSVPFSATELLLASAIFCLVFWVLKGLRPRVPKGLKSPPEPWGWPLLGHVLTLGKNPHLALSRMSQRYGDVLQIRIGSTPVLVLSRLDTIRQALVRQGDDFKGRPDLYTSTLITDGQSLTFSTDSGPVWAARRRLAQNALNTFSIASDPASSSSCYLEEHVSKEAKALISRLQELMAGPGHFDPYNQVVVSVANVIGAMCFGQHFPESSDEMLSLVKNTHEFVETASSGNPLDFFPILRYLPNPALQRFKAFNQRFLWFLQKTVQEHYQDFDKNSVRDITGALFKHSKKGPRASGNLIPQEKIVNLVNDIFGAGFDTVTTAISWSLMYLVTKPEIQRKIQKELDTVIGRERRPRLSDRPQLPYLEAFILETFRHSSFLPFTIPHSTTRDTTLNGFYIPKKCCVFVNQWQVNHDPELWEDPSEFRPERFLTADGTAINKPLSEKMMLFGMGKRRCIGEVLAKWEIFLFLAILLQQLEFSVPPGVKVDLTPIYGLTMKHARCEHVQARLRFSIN

[19] = molecular target: T4, CYP2D6; experiment: Inhibition of recombinant human CYP2D6 expressed in insect cell microsomes at 5 uM using Luciferin-ME EGE as substrate preincubated for 30 mins followed by NADPH addition measured after 45 mins by luminometric method; format: ADME; settings: probe Luciferin-ME EGE
[20] = molecular target: T2, CYP2C9; experiment: Inhibition of recombinant human CYP2C9 expressed in insect cell microsomes at 5 uM using Luciferin-H as substrate preincubated for 30 mins followed by NADPH addition measured after 30 mins by luminometric method; format: ADME; settings: probe Luciferin-H
[21] = molecular target: T4, CYP2D6; experiment: Inhibition of recombinant human CYP2D6 expressed in insect cell microsomes at 1 uM using Luciferin-ME EGE as substrate preincubated for 30 mins followed by NADPH addition measured after 45 mins by luminometric method; format: ADME; settings: probe Luciferin-ME EGE
[22] = in vitro; settings: human, Caco-2; remark: listed apart in the source
Description: Efflux ratio of apparent permeability from basolateral to apical over apical to basolateral side in human Caco2 cells after 120 mins by LC-MS/MS analysis

[23] = tested on: HT-1080; experiment: Antiproliferative activity against human HT1080 cells after 72 hrs by sulforhodamine-B assay; format: functional, cell-based; settings: for IC50: HT-1080, 72 h
[24] = in vitro; settings: human, Caco-2; remark: listed apart in the source
Description: Apparent permeability of the compound from apical to basolateral side in human Caco2 cells assessed as drug recovery after 120 mins by LC-MS/MS analysis

[25] = tested on: LS180; experiment: Antiproliferative activity against human LS180 cells after 72 hrs by sulforhodamine-B assay; format: functional, cell-based; settings: for IC50: LS180, 72 h
[26] = molecular target: Cytochrome P450 3A4 (Homo sapiens, UniProt P08684); experiment: Inhibition of recombinant human CYP3A4 expressed in insect cell microsomes using Luciferin-IPA as substrate preincubated for 10 mins followed by NADPH addition measured after 10 mins by luminometric method; format: ADME; settings: recombinant enzyme
[27] = molecular target: T6, CYP1A2 (Homo sapiens, UniProt P05177); experiment: Inhibition of recombinant human CYP1A2 expressed in insect cell microsomes at 10 uM using Luciferin-ME as substrate preincubated for 10 mins followed by NADPH addition measured after 30 mins by luminometric method; format: ADME; settings: probe Luciferin-ME
T6 sequence (P05177 whole entry): T5 sequence (P05177 whole entry)

[28] = molecular target: T6, CYP1A2; experiment: Inhibition of recombinant human CYP1A2 expressed in insect cell microsomes at 1 uM using Luciferin-ME as substrate preincubated for 10 mins followed by NADPH addition measured after 30 mins by luminometric method; format: ADME; settings: probe Luciferin-ME
[29] = in vitro; settings: human, Caco-2; remark: listed apart in the source
Description: Apparent permeability of the compound from basolateral to apical side in human Caco2 cells after 120 mins by LC-MS/MS analysis

[30] = molecular target: T1, CYP3A4; experiment: Inhibition of recombinant human CYP3A4 expressed in insect cell microsomes at 1 uM using Luciferin-IPA as substrate preincubated for 10 mins followed by NADPH addition measured after 10 mins by luminometric method; format: ADME; settings: probe Luciferin-IPA

T1 sequence (P08684 whole entry): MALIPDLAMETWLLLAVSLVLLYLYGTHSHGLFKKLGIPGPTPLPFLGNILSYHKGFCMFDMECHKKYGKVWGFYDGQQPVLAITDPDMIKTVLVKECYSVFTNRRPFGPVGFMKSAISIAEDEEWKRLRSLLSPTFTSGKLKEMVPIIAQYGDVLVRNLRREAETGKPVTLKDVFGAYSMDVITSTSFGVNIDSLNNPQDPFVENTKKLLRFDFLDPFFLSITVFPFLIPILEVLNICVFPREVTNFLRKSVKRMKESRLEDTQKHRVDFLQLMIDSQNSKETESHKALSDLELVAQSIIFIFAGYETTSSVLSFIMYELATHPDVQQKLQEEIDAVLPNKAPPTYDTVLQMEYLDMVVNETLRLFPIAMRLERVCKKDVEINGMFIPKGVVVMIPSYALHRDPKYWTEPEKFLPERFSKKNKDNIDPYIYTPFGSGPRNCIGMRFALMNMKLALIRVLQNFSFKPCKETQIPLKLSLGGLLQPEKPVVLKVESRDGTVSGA
Cytochrome P450 3A4, sequence (P08684 whole entry): as above
T4 sequence (P10635 whole entry): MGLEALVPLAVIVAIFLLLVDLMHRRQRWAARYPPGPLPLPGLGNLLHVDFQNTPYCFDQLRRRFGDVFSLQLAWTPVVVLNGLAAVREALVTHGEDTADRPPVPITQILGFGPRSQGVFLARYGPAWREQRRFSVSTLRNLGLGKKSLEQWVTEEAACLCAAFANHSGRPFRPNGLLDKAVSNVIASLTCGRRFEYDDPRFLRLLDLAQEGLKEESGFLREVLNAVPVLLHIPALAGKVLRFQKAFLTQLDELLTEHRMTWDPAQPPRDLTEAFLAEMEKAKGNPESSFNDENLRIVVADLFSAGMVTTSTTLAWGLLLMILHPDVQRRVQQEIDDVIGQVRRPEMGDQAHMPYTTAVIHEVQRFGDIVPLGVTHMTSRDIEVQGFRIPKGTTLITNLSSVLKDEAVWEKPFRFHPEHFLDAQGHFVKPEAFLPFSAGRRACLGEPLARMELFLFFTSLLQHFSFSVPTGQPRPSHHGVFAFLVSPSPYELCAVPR
T3 sequence (P33261 whole entry): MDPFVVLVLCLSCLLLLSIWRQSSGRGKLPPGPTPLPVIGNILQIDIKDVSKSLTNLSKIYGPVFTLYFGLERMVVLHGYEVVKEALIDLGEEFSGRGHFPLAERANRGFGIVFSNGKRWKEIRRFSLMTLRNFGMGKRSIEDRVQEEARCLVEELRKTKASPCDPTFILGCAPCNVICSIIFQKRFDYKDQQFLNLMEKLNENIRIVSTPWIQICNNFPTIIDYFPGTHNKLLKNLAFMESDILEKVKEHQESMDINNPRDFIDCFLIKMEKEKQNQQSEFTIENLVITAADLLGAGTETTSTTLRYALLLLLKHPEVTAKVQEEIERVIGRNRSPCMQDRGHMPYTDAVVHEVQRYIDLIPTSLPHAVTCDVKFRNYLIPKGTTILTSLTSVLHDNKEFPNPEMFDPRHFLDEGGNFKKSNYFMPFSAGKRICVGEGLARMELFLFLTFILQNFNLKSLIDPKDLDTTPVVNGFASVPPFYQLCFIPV
T2 sequence (P11712 whole entry): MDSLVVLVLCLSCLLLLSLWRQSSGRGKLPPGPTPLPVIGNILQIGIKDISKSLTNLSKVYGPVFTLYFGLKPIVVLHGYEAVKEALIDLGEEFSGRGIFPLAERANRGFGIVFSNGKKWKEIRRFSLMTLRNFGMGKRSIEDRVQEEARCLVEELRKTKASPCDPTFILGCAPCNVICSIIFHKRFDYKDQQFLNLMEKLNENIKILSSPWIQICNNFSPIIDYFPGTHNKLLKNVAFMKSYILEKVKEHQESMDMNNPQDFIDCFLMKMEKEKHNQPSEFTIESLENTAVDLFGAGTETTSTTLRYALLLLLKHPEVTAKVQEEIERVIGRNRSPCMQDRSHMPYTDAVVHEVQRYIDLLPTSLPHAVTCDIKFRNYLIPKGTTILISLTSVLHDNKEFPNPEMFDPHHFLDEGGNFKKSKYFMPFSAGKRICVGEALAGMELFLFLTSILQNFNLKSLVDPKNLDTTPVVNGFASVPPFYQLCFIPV

Row | recovery at 2 h [1] | inhibition at 10 min, 5 µM [2] | AUC(0-t) [3] | Clast [4] | inhibition at 0.5 h, 10 µM [5] | remaining at 2 h [6] | Tlast [7] | inhibition at 10 min, 10 µM [8] | CL/F [9] | inhibition at 0.5 h, 10 µM [10] | Vd/F [11] | inhibition at 0.5 h, 1 µM [12] | inhibition at 0.5 h, 5 µM [13] | AUC(0-inf) [14] | inhibition at 0.75 h, 10 µM [15] | Tmax [16] | Papp A→B at 2 h [17] | inhibition (INH) [18] | inhibition at 0.75 h, 5 µM [19] | inhibition at 0.5 h, 5 µM [20] | Structure (SMILES) | other results
1 | 31.9% | 76% | 237 µg·h/mL | 74.2 ng/mL | 74% | 72.1% | 24 h | 87% | 14 mL/min/kg | 81% | 2.96 L/kg | 57% | 79% | 237 µg·h/mL | 23% | 2 h | 0.428 ×10⁻⁶ cm/s | Dose-dependent effect | 29% | 71% | COc1cc(C(=O)NC(=N)Nc2ccc(C)c(NC(=O)c3ccc(-c4ccccc4)cc3)c2)cc(OC)c1OC.Cl | inhibition at 0.75 h, 1 µM [21]: 19%; efflux ratio at 2 h [22]: 1.52; Activity [23]: Dose-dependent effect; IC50 [23]: 29 µM; recovery at 2 h [24]: 16.5%; Activity [25]: Dose-dependent effect; IC50 [25]: 9.7 µM; inhibition (INH) [26]: Dose-dependent effect; inhibition at 0.5 h, 10 µM [27]: 64%; inhibition at 0.5 h, 1 µM [28]: 49%; Papp B→A at 2 h [29]: 0.651 ×10⁻⁶ cm/s; inhibition at 10 min, 1 µM [30]: 38%
2 | 44.6% | 89% | 137 µg·h/mL | 50.7 ng/mL | 83% | 81.3% | 24 h | 92% | 24.3 mL/min/kg | 83% | 5.28 L/kg | 67% | 81% | 137 µg·h/mL | 11% | 4 h | 0.701 ×10⁻⁶ cm/s | Dose-dependent effect | 12% | 81% | COc1cc(C(=O)NC(=N)Nc2ccc(C)c(NC(=O)c3ccc(CCc4ccccc4)cc3)c2)cc(OC)c1OC.Cl | inhibition at 0.75 h, 1 µM [21]: 15%; efflux ratio at 2 h [22]: 1.05; Activity [23]: Dose-dependent effect; IC50 [23]: 2 µM; recovery at 2 h [24]: 41.1%; Activity [25]: Dose-dependent effect; IC50 [25]: 2.5 µM; inhibition (INH) [26]: Dose-dependent effect; inhibition at 0.5 h, 10 µM [27]: 40%; inhibition at 0.5 h, 1 µM [28]: 29%; Papp B→A at 2 h [29]: 0.737 ×10⁻⁶ cm/s; inhibition at 10 min, 1 µM [30]: 76%
3 | 30.6% | 78% | 223 µg·h/mL | 90.7 ng/mL | 79% | 66.6% | 24 h | 82% | 14.9 mL/min/kg | 76% | 3.32 L/kg | 59% | 76% | 224 µg·h/mL | 21% | 1 h | 0.366 ×10⁻⁶ cm/s | Dose-dependent effect | 25% | 76% | COc1cc(C(=O)NC(=N)Nc2ccc(C)c(NC(=O)c3ccc(-c4ccc(F)cc4)cc3)c2)cc(OC)c1OC.Cl | inhibition at 0.75 h, 1 µM [21]: 20%; efflux ratio at 2 h [22]: 1.01; Activity [23]: Dose-dependent effect; IC50 [23]: 20 µM; recovery at 2 h [24]: 33%; Activity [25]: Dose-dependent effect; IC50 [25]: 8.1 µM; inhibition (INH) [26]: Dose-dependent effect; inhibition at 0.5 h, 10 µM [27]: 59%; inhibition at 0.5 h, 1 µM [28]: 46%; Papp B→A at 2 h [29]: 0.37 ×10⁻⁶ cm/s; inhibition at 10 min, 1 µM [30]: 52%
